The structures appear in SMILES notation.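 How tested: cells in 96-well plates exposed to compound for 48 hours at five concentrations. Abbreviation: GI50, concentration required for 50% inhibition of growth. TGI: concentration producing complete growth inhibition.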

The values that follow come from PubChem BioAssay (NCI).

Common to all, as to test: inhibition of tumour cell growth, NCI panel, 48 h
Assay [1] deals with HT29 colon.
For assay [2], the system named is NCI-H460 lung.
Assay [3] deals with ACHN renal.
The test system of assay [4] is HS 578T breast.
The test system of assay [5] is UO-31 renal.
In assay [6] the test system is PC-3 prostate.
Assay [7] has as its system HOP-92 NSCLC.
Assay [8] concerns HCT-15 colon.
Assay [9] has as its system SN12C renal.
Assay [10] relates to NCI-H226 lung.

In the case of `N=c1ccc2nc3ccc(N)cc3sc-2c1`, the GI50 in [1] is 11.1 µM; in assay [2], 5.23 µM; in [3], 8.55 µM; in assay [4], 20.9 µM; in assay [5], 26 µM; in assay [6] it was 2.56 µM. The GI50 in assay [7] is 17.7 µM; in assay [8] it was 5.4 µM; in [9] it was 3.19 µM; in assay [10], 12.4 µM. In addition, the TGI in assay [1] is 40.8 µM; in assay [2], above 100 µM; in assay [3], 23.2 µM; in assay [4], above 100 µM; in assay [5] it was above 100 µM; in [6], 15.6 µM. Further, the TGI in [7] is 61 µM; in assay [8], above 100 µM; in [9], 11 µM; in [10], 28.2 µM.

`C=C1C(=O)O[C@H]2[C@H]1CC/C(COC(=O)N[C@H]1C[C@H](O[C@H]3C[C@](O)(C(=O)CO)Cc4c(O)c5c(c(O)c43)C(=O)c3c(OC)cccc3C5=O)O[C@@H](C)[C@H]1O)=C\CC[C@@]1(C)O[C@@H]21`: the GI50 in [1] is 4.48 µM; in [2], 9.02 µM; in [3] it was 41.3 µM; in assay [4] it was 9.93 µM; in [5] it was above 50 µM; in assay [6], 7.8 µM. Also, the GI50 in assay [7] is 0.838 µM; in [8], above 50 µM; in [9], 5.07 µM; in [10], 5.33 µM. In addition, the TGI in assay [1] is 22 µM; in assay [2], above 50 µM; in assay [3], above 50 µM; in assay [4], 34 µM; in assay [5], above 50 µM; in assay [6] it was 30.8 µM. For the same compound, the TGI in [7] was 2.28 µM; in assay [8], above 50 µM; in assay [9], 14.4 µM; in assay [10] it was 12.6 µM.

`O=C(CC1(O)C(=O)Nc2ccc(F)cc21)c1ccc(C(=O)NCC2CCC3(CC2)OOC2(CCCCC2)OO3)cc1` (stereo not given): the GI50 in assay [1] was 11.7 µM; in [2] it was 2.52 µM; in [3], 2.89 µM; in assay [4], 11.4 µM; in [5], 0.858 µM; in assay [6], 3.86 µM. The GI50 is 1.91 µM in [7], 11.4 µM in [8], 10.8 µM in assay [9] and 10.3 µM in assay [10]. Also, the TGI was found to be 28 µM in assay [1]; 6.47 µM in assay [2]; 10.7 µM in [3]; 47.4 µM in assay [4]; 2.28 µM in [5]; 19.3 µM in assay [6]. Besides, the TGI in assay [7] came out at 3.82 µM; in assay [8] it was 27.9 µM; in assay [9] it was 33.6 µM; in assay [10] it was 32.2 µM.

Consider `Cc1ccc(S(=O)(=O)c2nc(-c3ccccc3)oc2S(C)(=O)=O)cc1`, for which the GI50 in [1] was 2.81 µM; in assay [2], 13.3 µM; in assay [3], 1.76 µM; in [4] it was 10.1 µM; in assay [5], 1.48 µM; in [6], 10.4 µM. Besides, the GI50 is 1.84 µM in assay [7], 1.7 µM in [8], 1.92 µM in [9] and 3.31 µM in assay [10]. In addition, the TGI in assay [1] amounted to 6.6 µM; in [2], 27.8 µM; in assay [3] it was 3.13 µM; in assay [4], 43.8 µM; in assay [5], 2.81 µM; in assay [6], 23.1 µM. Further, the TGI in [7] turned out to be 3.48 µM; in assay [8], 3.31 µM; in [9] it was 3.95 µM; in assay [10], 15 µM.
